# Experimental data: PubChem BioAssay (NCI)
#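 GI50 marks 50% less growth. Definition used: TGI = concentration required for complete inhibition of growth.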
# Experiments:
# Test in all cases: NCI tumour cell line growth inhibition, 384-well format
# [1] = tested on: SF-295 CNS
# [2] = tested on: SK-MEL-2 melanoma
# [3] = tested on: NCI-H23 lung
# [4] = tested on: SK-MEL-5 melanoma
# [5] = tested on: TK-10 renal
# [6] = tested on: HCC-2998 colon
# [7] = tested on: MDA-MB-435 melanoma
# [8] = tested on: OVCAR-4 ovarian
# [9] = tested on: RXF 393 renal
# [10] = tested on: CCRF-CEM leukemia
# [11] = tested on: MDA-MB-231 breast
# [12] = tested on: COLO 205 colon
# [13] = tested on: NCI/ADR-RES ovarian
# [14] = tested on: HCT-116 colon
# [15] = tested on: HCT-15 colon
# [16] = tested on: SN12C renal
# [17] = tested on: HL-60(TB) leukemia
# [18] = tested on: NCI-H322M lung
# [19] = tested on: MALME-3M melanoma
# [20] = tested on: NCI-H226 lung
# [21] = tested on: UO-31 renal
# [22] = tested on: UACC-62 melanoma
# [23] = tested on: M14 melanoma
# [24] = tested on: OVCAR-3 ovarian
# [25] = tested on: SF-539 CNS
# [26] = tested on: SK-MEL-28 melanoma
# [27] = tested on: K-562 leukemia
# [28] = tested on: A549 NSCLC
# [29] = tested on: SW-620 colon
# [30] = tested on: RPMI-8226 leukemia
# [31] = tested on: OVCAR-5 ovarian
# [32] = tested on: HT29 colon
# [33] = tested on: CAKI-1 renal
# [34] = tested on: LOX IMVI melanoma
# [35] = tested on: T-47D breast
# [36] = tested on: MOLT-4 leukemia
# [37] = tested on: ACHN renal
# [38] = tested on: OVCAR-8 ovarian
# [39] = tested on: HOP-62 NSCLC
# [40] = tested on: 786-0 renal
# [41] = tested on: NCI-H460 NSCLC
# [42] = tested on: MDA-MB-468 breast
# [43] = tested on: DU-145 prostate
# [44] = tested on: BT-549 breast
# [45] = tested on: IGROV1 ovarian
# [46] = tested on: UACC-257 melanoma
# [47] = tested on: U251 glioblastoma
# [48] = tested on: A498 renal
# [49] = tested on: HOP-92 NSCLC
# [50] = tested on: SR leukemia
# [51] = tested on: SNB-19 CNS
# [52] = tested on: SF-268 CNS
# [53] = tested on: MCF7 breast
# [54] = tested on: KM12 colon
# [55] = tested on: SK-OV-3 ovarian
# [56] = tested on: NCI-H522 lung
# [57] = tested on: PC-3 prostate
compound,measurement,setting,value
CC1(C)CCC2(CC1)N[C@@H](C(=O)N[C@@H]1CC[C@@H](C(N)=O)OC1)[C@H](c1ccnc(Cl)c1F)[C@]21C(=O)Nc2cc(Cl)ccc21,GI50,[1],1.74 µM
same,TGI,[1],3.29 µM
same,GI50,[2],1.88 µM
same,TGI,[2],3.32 µM
same,GI50,[3],2.04 µM
same,TGI,[3],5.35 µM
same,GI50,[4],0.668 µM
same,TGI,[4],2.07 µM
same,GI50,[5],2.5 µM
same,TGI,[5],7.33 µM
same,GI50,[6],1.34 µM
same,TGI,[6],2.7 µM
same,GI50,[7],1.81 µM
same,TGI,[7],3.44 µM
same,GI50,[8],1.91 µM
same,TGI,[8],5.55 µM
same,GI50,[9],1.42 µM
same,TGI,[9],2.84 µM
same,GI50,[10],1.92 µM
same,TGI,[10],3.43 µM
same,GI50,[11],1.82 µM
same,TGI,[11],3.4 µM
same,GI50,[12],1.91 µM
same,TGI,[12],3.42 µM
same,GI50,[13],14 µM
same,TGI,[13],27.2 µM
same,GI50,[14],0.0352 µM
same,TGI,[14],1.39 µM
same,GI50,[15],1.91 µM
same,TGI,[15],3.69 µM
same,GI50,[16],2.67 µM
same,TGI,[16],7.98 µM
same,GI50,[17],2.11 µM
same,TGI,[17],3.55 µM
same,GI50,[18],2.3 µM
same,TGI,[18],5.99 µM
same,GI50,[19],0.0777 µM
same,TGI,[19],1.04 µM
same,GI50,[20],0.0118 µM
same,TGI,[20],0.0659 µM
same,GI50,[21],0.0785 µM
same,TGI,[21],0.335 µM
same,GI50,[22],< 0.01 µM
same,TGI,[22],1.07 µM
same,GI50,[23],0.0473 µM
same,TGI,[23],2.03 µM
same,GI50,[24],1.66 µM
same,TGI,[24],3.22 µM
same,GI50,[25],1.66 µM
same,TGI,[25],3.12 µM
same,GI50,[26],1.71 µM
same,TGI,[26],3.15 µM
same,GI50,[27],1.64 µM
same,TGI,[27],3.03 µM
same,GI50,[28],0.0746 µM
same,TGI,[28],1.3 µM
same,GI50,[29],3.32 µM
same,TGI,[29],11.1 µM
same,GI50,[30],1.66 µM
same,TGI,[30],3.04 µM
same,GI50,[31],2.28 µM
same,TGI,[31],5.34 µM
same,GI50,[32],1.73 µM
same,TGI,[32],3.24 µM
same,GI50,[33],< 0.01 µM
same,TGI,[33],0.347 µM
same,GI50,[34],0.345 µM
same,TGI,[34],1.88 µM
same,GI50,[35],1.63 µM
same,TGI,[35],4.1 µM
same,GI50,[36],< 0.01 µM
same,TGI,[36],0.0119 µM
same,GI50,[37],0.0285 µM
same,TGI,[37],0.65 µM
same,GI50,[38],2.4 µM
same,TGI,[38],5.61 µM
same,GI50,[39],1.85 µM
same,TGI,[39],3.78 µM
same,GI50,[40],2.02 µM
same,TGI,[40],4.3 µM
same,GI50,[41],0.0312 µM
same,TGI,[41],1.13 µM
same,GI50,[42],1.93 µM
same,TGI,[42],3.71 µM
same,GI50,[43],2.66 µM
same,TGI,[43],6.74 µM
same,GI50,[44],1.74 µM
same,TGI,[44],3.78 µM
same,GI50,[45],0.224 µM
same,TGI,[45],2.44 µM
same,GI50,[46],0.0946 µM
same,TGI,[46],0.49 µM
same,GI50,[47],2.08 µM
same,TGI,[47],4.45 µM
same,GI50,[48],0.0244 µM
same,TGI,[48],0.971 µM
same,GI50,[49],1.71 µM
same,TGI,[49],3.53 µM
same,GI50,[50],< 0.01 µM
same,GI50,[51],2.35 µM
same,TGI,[51],5.15 µM
same,GI50,[52],2.12 µM
same,TGI,[52],4.56 µM
same,GI50,[53],0.0312 µM
same,TGI,[53],0.741 µM
same,GI50,[54],1.98 µM
same,TGI,[54],3.82 µM
same,GI50,[55],1.8 µM
same,TGI,[55],3.67 µM
same,GI50,[56],1.58 µM
same,TGI,[56],3.02 µM
same,GI50,[57],1.84 µM
same,TGI,[57],3.33 µM
